Where two headings read alike, the source gives them in different places.
Tested on: Onchocerca gutturosa Adult Male Worms
Assay: Onchocerciasis in vitro screening model, worm motility score
Format: cell-based
Details: read-out: O. gutturosa activity level (IC50 or MED)
[1] = Onchocerca gutturosa, Table 1 O. gutturosa, levels A/B/C, motility or MTT readout not specified
[2] = in vitro, Onchocerca gutturosa adult male worms, class A/B/C

Row | SMILES | IC50 [1] [nM] | IC50 [2] [nM]
1 | CC(C)Oc1ccc(-c2nsc(Nc3ncccc3C(=O)N(C)C3CC(F)(F)C3)n2)nc1 [Compound 191, N-(3,3-difluoro-cyclobutyl)-2-(3-(5-isoprop-oxypyridin-2-yl)-1,2,4-thiadiazol-5-ylamino)-N-methyl-nicotinamide] | 200 to 500 | 
2 | Cc1cccnc1Nc1nc(-c2cc(C(=O)N(C)C)c(OC(C)C)cn2)ns1 [Compound 192, 5-isopropoxy-N,N-dimethyl-2-(5-(3-methylpyridin-2-ylamino)-1,2,4-thiadiazol-3-yl)isonicotin-amide] | 500 to 5000 | 
3 | CC(C)Oc1cnc(-c2nsc(Nc3ncccc3C(C)C)n2)cc1C(=O)N(C)C [Compound 193, 5-isopropoxy-2-(5-(3-isopropylpyridin-2-ylamino)-1,2,4-thiadiazol-3-yl)-N,N-dimethy-lisonicotinamide] | 200 to 500 | 
4 | CC(C)Oc1cnc(-c2nsc(Nc3ncccc3N3CCCC3=O)n2)cc1C(=O)N(C)C [Compound 194, 5-isopropoxy-N,N-dimethyl-2-(5-(3-(2-oxopyrrolidin-1-yl)pyridin-2-ylamino)-1,2,4-thiadiazol-3-yl)isonicotin-amide] | 500 to 5000 | 
5 | CC(C)Oc1ccc(-c2nsc(Nc3ncc(C(=O)NC4CC(F)(F)C4)cc3C(C)C)n2)nc1 [Compound 195, N-(3,3-difluoro-cyclobutyl)-6-(3-(5-isoprop-oxypyridin-2-yl)-1,2,4-thiadiazol-5-ylamino)-5-isopropyl-nicotinamide] | < 200 | 
6 | COC(=O)c1cc(-c2nsc(Nc3ncccc3C)n2)ncc1OC(C)C [Compound 196, methyl 5-isopropoxy-2-(5-(3-methylpyridin-2-ylamino)-1,2,4-thiadiazol-3-yl)isonicotinate] | 200 to 500 | 
7 | COC(=O)c1cc(-c2nsc(Nc3ncccc3C(C)C)n2)ncc1OC(C)C [Compound 197, methyl 5-isopropoxy-2-(5-(3-isopropylpyridin-2-ylamino)-1,2,4-thiadiazol-3-yl)isonicotinate] | < 200 | 
8 | CC(C)Oc1cnc(-c2nsc(Nc3ncccc3C(C)C)n2)cc1C(N)=O [Compound 198, 5-isopropoxy-2-(5-(3-isopropylpyridin-2-ylamino)-1,2,4-thiadiazol-3-yl)isonicotin-amide] |  | 500 to 5000
9 | CC(=O)N(C)c1cccnc1Nc1nc(-c2ccc(OC3CCOCC3)cn2)ns1 [Compound 199, N-methyl-N-(2-(3-(5-(tetrahydro-2H-pyran-4-yloxy)pyridin-2-yl)-1,2,4-thiadiazol-5-ylamino)pyridin-3-yl)acetamide] |  | 500 to 5000
10 | Cc1cccnc1Nc1nc(-c2cc(C#N)c(OC(C)C)cn2)ns1 [Compound 200, 5-isopropoxy-2-(5-(3-methylpyridin-2-ylamino)-1,2,4-thiadiazol-3-yl)isonicotino-nitrile] |  | 500 to 5000
11 | CC(C)Oc1cnc(-c2nsc(Nc3ncccc3C(C)C)n2)cc1C#N [Compound 201, 5-isopropoxy-2-(5-(3-isopropyl-pyridin-2-ylamino)-1,2,4-thiadiazol-3-yl)isonicotino-nitrile] |  | 500 to 5000
12 | CC(=O)N(C)c1cccnc1Nc1nc(-c2cc3c(cn2)N(C)CC3)ns1 [Compound 202, N-methyl-N-(2-(3-(1-methyl-2,3-dihydro-1H-pyrrolo[2,3-c]pyridin-5-yl)-1,2,4-thiadiazol-5-ylamino)pyridin-3-yl)acetamide] |  | 200 to 500
13 | CC(=O)N(C)c1cccnc1Nc1nc(-c2ccc(OC3CCN(C(C)C)CC3(F)F)cn2)ns1 (stereo not shown) [Compound 203, N-(2-(3-(5-(3,3-difluoro-1-isopropyl-piperidin-4-yloxy)pyridin-2-yl)-1,2,4-thiadiazol-5-ylamino)pyridin-3-yl)-N-methylacetamide] |  | 500 to 5000
14 | O=C1CCCN1c1cccnc1Nc1nc(-c2ccc(NC34CC(C3)C4)cn2)ns1 [Compound 204, 1-(2-(3-(5-(bicyclo [1.1.1]pentan-1-ylamino)pyridin-2-yl)-1,2,4-thiadiazol-5-ylamino)pyridin-3-yl)pyrrolidin-2-one] |  | 500 to 5000
15 | CC(=O)N(c1cccnc1Nc1nc(-c2ccc(OC(C)C)cn2)ns1)C(C)C [Compound 205, N-(2-(3-(5-isopropoxy-pyridin-2-yl)-1,2,4-thiadiazol-5-ylamino)pyridin-3-yl)-N-isopropy-lacetamide] |  | 500 to 5000
16 | CC(=O)N(C)c1cccnc1Nc1nc(-c2cc3c(cn2)N(C(C)C)CC3)ns1 [Compound 206, N-(2-(3-(1-isopropyl-2,3-dihydro-1H-pyrrolo[2,3-c]pyridin-5-yl)-1,2,4-thiadiazol-5-ylamino)pyridin-3-yl)-N-methylacetamide] |  | 500 to 5000
17 | CC(=O)N(C)c1cccnc1Nc1nc(-c2ccc(NC34CC(C3)C4)cn2)ns1 [Compound 207, N-(2-(3-(5-(bicyclo [1.1.1]pentan-1-ylamino)pyridin-2-yl)-1,2,4-thiadiazol-5-ylamino)pyridin-3-yl)-N-methylacetamide] |  | 500 to 5000
18 | CC(=O)N(C)c1cccnc1Nc1nc(-c2cc(C)ccn2)ns1 [Compound 208, N-methyl-N-(2-(3-(4-methylpyridin-2-yl)-1,2,4-thiadiazol-5-ylamino)pyridin-3-yl)acetamide] |  | 500 to 5000
19 | COc1ccc(-c2nsc(Nc3ccc(C(F)(F)F)cn3)n2)nc1 [Compound 209, 3-(5-methoxy-pyridin-2-yl)-N-(5-(trifluoromethyl)pyridin-2-yl)-1,2,4-thiadiazol-5-amine] |  | < 200

Row | SMILES | IC50 [1] [nM] | IC50 [2] [nM]
20 | COc1cccnc1-c1nsc(Nc2cc(C(F)(F)F)c(C(C)C)cn2)n1 [Compound 210, N-(5-isopropyl-4-(trifluoromethyl)pyridin-2-yl)-3-(3-methoxy-pyridin-2-yl)-1,2,4-thiadiazol-5-amine] |  | 200 to 500
21 | Cc1cccnc1Nc1nnc(-c2cc(OC(C)C)ccn2)o1 [Compound 211, 5-(4-isopropoxy-pyridin-2-yl)-N-(3-methyl-pyridin-2-yl)-1,3,4-oxadiazol-2-amine] |  | 500 to 5000
22 | COc1ccc(Nc2nnc(-c3cc(OC(C)C)ccn3)o2)nc1 [Compound 212, 5-(4-isoprop-oxypyridin-2-yl)-N-(5-methoxy-pyridin-2-yl)-1,3,4-oxadiazol-2-amine] |  | 500 to 5000
23 | FC(F)(F)c1ccc(Nc2nc(-c3cc(OC4CCCCC4)ccn3)ns2)nc1 [Compound 213, 3-(4-(cyclo-hexyloxy)pyridin-2-yl)-N-(5-(trifluoromethyl)pyridin-2-yl)-1,2,4-thiadiazol-5-amine] |  | < 200
24 | COc1ccc(Nc2nnc(-c3cc(OC4CCCCC4)ccn3)o2)nc1 [Compound 214, 5-(4-(cyclohexy-loxy)pyridin-2-yl)-N-(5-methoxypyridin-2-yl)-1,3,4-oxadiazol-2-amine] |  | < 200
25 | COc1ccc(-c2nsc(Nc3ccc(OC(C)C)cn3)n2)nc1 [Compound 215, N-(5-isoprop-oxypyridin-2-yl)-3-(5-methoxy-pyridin-2-yl)-1,2,4-thiadiazol-5-amine] |  | 500 to 5000
26 | CC(=O)N(C)c1cccnc1Nc1nc(-c2cc(C(C)C)ccn2)ns1 [Compound 216, N-(2-(3-(4-iso-propylpyridin-2-yl)-1,2,4-thiadiazol-5-ylamino)pyridin-3-yl)-N-methyl-acetamide] |  | 200 to 500
27 | CC(C)c1ccnc(-c2nsc(Nc3ncccc3N(C)C(=O)C3CC3)n2)c1 [Compound 217, N-(2-(3-(4-isopropylpyridin-2-yl)-1,2,4-thiadiazol-5-ylamino)pyridin-3-yl)-N-methylcyclo-propanecarbox-amide] |  | 200 to 500
28 | CC(C)Oc1cnc(-c2nsc(Nc3ncccc3C(F)(F)F)n2)cc1C(=O)N(C)C [Compound 218, 5-isopropoxy-N,N-dimethyl-2-(5-(3-(trifluoromethyl)pyridin-2-ylamino)-1,2,4-thiadiazol-3-yl)isonico-tinamide] |  | 500 to 5000
29 | CC(C)Oc1cnc(-c2nsc(Nc3ncc(C(C)C)cc3C(F)(F)F)n2)cc1C(=O)N(C)C [Compound 219, 5-isopropoxy-2-(5-(5-isopropyl-3-(trifluoromethyl)pyridin-2-ylamino)-1,2,4-thiadiazol-3-yl)-N,N-dimethyliso-nicotinamide] |  | 200 to 500
30 | CC(C)Oc1cnc(-c2nsc(Nc3ncccc3C(F)(F)F)n2)cc1C(N)=O [Compound 220, 5-isopropoxy-2-(5-(3-(trifluoromethyl)pyridin-2-ylamino)-1,2,4-thiadiazol-3-yl)isonico-tinamide] |  | 200 to 500
31 | CC(C)Oc1cnc(-c2nsc(Nc3ncc(C(C)C)cc3C(F)(F)F)n2)cc1C(N)=O [Compound 221, 5-isopropoxy-2-(5-(5-isopropyl-3-(trifluoromethyl)pyridin-2-ylamino)-1,2,4-thiadiazol-3-yl)iso-nicotinamide] |  | 200 to 500
32 | CC(=O)N(C)c1cccnc1Nc1nc(-c2ccc(OC(C)C)cn2)no1 [Compound 222, N-(2-(3-(5-isopropoxy-pyridin-2-yl)-1,2,4-oxadiazol-5-ylamino)pyridin-3-yl)-N-methyl-acetamide] |  | 500 to 5000
33 | CC(=O)N(C)c1cccnc1Nc1nc(-c2cc(C(C)C)c(C)cn2)ns1 [Compound 223, N-(2-(3-(4-isopropyl-5-methylpyridin-2-yl)-1,2,4-thiadiazol-5-ylamino)pyridin-3-yl)-N-methyl-acetamide] |  | 200 to 500
34 | CC(C)Oc1cnc(-c2nsc(Nc3ncccc3C(=O)N(C)C)n2)cc1C(F)(F)F [Compound 225, 2-(3-(5-isopropoxy-4-(trifluoromethyl)pyridin-2-yl)-1,2,4-thiadiazol-5-ylamino)-N,N-dimethyl-nicotinamide] |  | 500 to 5000
35 | CC(=O)N(C)c1cccnc1Nc1nc(-c2cc(C#N)c(OC(C)C)cn2)ns1 [Compound 226, N-(2-(3-(4-cyano-5-isopropoxy-pyridin-2-yl)-1,2,4-thiadiazol-5-ylamino)pyridin-3-yl)-N-methyl-acetamide] |  | 500 to 5000
36 | CN(C)C(=O)c1cccnc1Nc1nc(-c2cc3c(cn2)N(C)CC3)ns1 [Compound 229, N,N-dimethyl-2-(3-(1-methyl-2,3-dihydro-1H-pyrrolo[2,3-c]pyridin-5-yl)-1,2,4-thiadiazol-5-ylamino) nicotinamide] |  | 500 to 5000
37 | Cc1cccnc1Nc1nc(-c2cc(C(C)C)c(C(=O)N(C)C)cn2)ns1 [Compound 230, 4-isopropyl-N,N-dimethyl-6-(5-(3-methyl-pyridin-2-ylamino)-1,2,4-thiadiazol-3-yl)nicotinamide] |  | 500 to 5000

Reference: US11505548B2, “Heterocyclic compounds and their use for treatment of helminthic infections and diseases” (Celgene Corporation, priority 2019, dated 2022)
